Experimental data: patent publication US10905757B2, “Cross-reactive T cell epitopes of HIV, SIV, and FIV for vaccines in humans and cats” (priority 2012, dated 2021)
“Also recorded” adds a separate entry of the source. Marks after values point to notes of the source that are not given here. Ends that are not written are not given here.

How the values were obtained:
Assay type in all cases: cell-based, human
[1] = test system: CD3+CD8+ T cells from HIV+ subjects; experiment: CFSE-proliferation, CD3+CD8+ T cells from HIV+ subjects; conditions: for CD8^+ T Proliferation (positive/total): positive responses over total tested, F3 responders (H3 responders for H3-3)
Procedure: (§1) 2×10^5-5×10^5 CFSE labeled PBMCs were incubated with 15-20 μg of peptides in 600 μL of RPMI media with 10% FBS for 5 days at 37° C. (5% CO2). After harvesting, they were labeled with allophycocyanin (APC), APC-H7, and Pacific Blue labeled monoclonal antibodies (MAb) to human CD3, CD4, and CD8, respectively and analyzed for T-cell proliferation by flow cytometry using BD LSRII (BD Biosciences). The proliferating CD4^+ or CD8^+ T cell populations were defined from the CD3^+ cell population as either CD3^+CD8^+ or CD3^+CD4^+T cells (mutually exclusive) with low CFSE (CFSE^low) staining.
(§2) Flow cytometry (FACS) for carboxyfluoresein diacetate succinimide ester (CFSE)-proliferation and intracellular cytotoxin staining (ICS). The CFSE-proliferation analysis was performed on PBMC according to the manufacturer's protocol (Invitrogen, Carlsbad, Calif.) and processed as previously described (Lichterfeld et al. (2004)). Modifications consisted of using 2.0-5.0×10^5 CFSE-labeled cells stimulated for 5 days (37° C., 5% CO^2) with 30 μg/well of total peptides in a pool (15 μg/well for individual peptide, Table 10) or 5 μg/mL PHA in AIM V medium containing 25 μg/mL of gentamycin and 10% heat-inactivated human serum. Subsequently these cells were harvested and labeled with the LIVE/DEAD fixable yellow dye (Invitrogen) and then treated 5 min with anti-CD16/CD32 antibody (Biolegend, San Diego, Calif.) for blocking non-specific binding before phenotype-specific antibodies. The following antibodies were used for the CFSE-proliferation analysis: anti-CD4 APC, anti-CD3 APC-H7, and anti-CD8 Pacific Blue (BD Biosciences, San Jose, Calif.).
(§3) In both analyses, 1.0-2.0×10^4 cells were fixed in phosphate-buffered saline (PBS) containing 2% paraformaldehyde and analyzed on BD LSRII using […] Software (BD Biosciences), with a positive threshold of 3% CFSE^low for CFSE-proliferation and 1% T cells expressing cytotoxin for ICS. The final value for each subject was derived after subtraction of the subject's medium control and the average value of peptide-stimulated cells from uninfected control subjects.
(§4) Flow cytometry (FACS) for measuring CFSE-proliferation and intracellular cytokine staining (ICS). Carboxyfluorescein diacetate succinimide ester (CFSE)-proliferation analysis was performed according to the manufacturer's protocol (Invitrogen) and processed as previously described (Lichterfeld et al. 2004) using the following modification: 2.5-5.0×10^5 CFSE-labeled PBMC stimulated for 4-5 days (37° C., 5% CO2) with 15-30 μg of peptides in culture media (AIM V medium, 25 μg/mL gentamycin, and 10% heat-inactivated fetal bovine serum). The ICS analysis was performed as previously described (Horton et al. 2007; Pattacini et al. 2012).
(§5) The antibodies used for the proliferation analysis consisted of anti-CD4 allophycocyanin (APC) anti-CD3 APC-H7, and anti-CD8 Pacific Blue, and those for ICS were anti-CD3 APC-H7, anti-CD4 BD Horizon V450, anti-CD8 FITC, anti-granzyme B (GrzB) Alexa 700, anti-granzyme A (GrzA) PE (BD Biosciences, Cat #555349, 560176, 558207, 560345, 555366, 560213, 558904), and anti-perforin PerCP (Abcam, Cat #ab86319). Both analyses were performed with BD LSRII and […]™ Software (BD Biosciences), using a positive threshold of >1% CFSE^low for CFSE-proliferation except for ICS studies with threshold of >0.1% T cells expressing cytotoxin. The final value for each subject was derived after subtracting the result of each HIV^+ subject with the media control followed by subtraction with the average response of the media-control subtracted HIV^− subjects.

PBMC from HIV+ subjects = experiment: IFNγ ELISpot, PBMC from HIV+ subjects; conditions: for IFNγ (positive/total): positive responses over total tested, F3 responders (H3 responders for H3-3)
Procedure: 1.0×10^5-2.0×10^5 PBMCs were stimulated with peptides (15 μg peptide/well) in ELISpot plates for 18 hours in AIMS V medium (at 10% normal human serum). The spots were counted with an ELISpot reader and adjusted to spot forming units (SFU) per 10^6 cells.
Positive reactivity was defined at ≥70 SFU/10^6 cells after subtracting the background derived from non-specific peptide control or media control, and the average of 3 HIV-1 negative controls (<30 SFU/10^6 cells).
ELISpot assays. Enzyme-linked immunosorbent spot assays (ELISpot) for IFNγ (R&D Systems, Minneapolis, Minn.) were performed with AIM V medium containing 5% heat-inactivated (56° C., 30 min) human serum as previously described (Abbott et al. (2012)). The PBMC from HIV+ subjects were stimulated with either peptide pool (4-5 consecutive peptides per pool at 5 μg per peptide) or individual peptide (15 μg/well). The peptides were 11-16 aa in length with 8-10 aa overlap. The results were analyzed with an ELISpot reader (MVS Pacific LLC, Minneapolis, Minn.) and adjusted to spot forming units (SFU) per 10^6 cells, after subtraction of the average medium control for each subject. The PBMC from HIV+ subjects were stimulated with T-cell mitogen, phytohemaglutinin A (PHA, 5 μg/mL), as positive control. At a positive threshold of 70 SFU, HIV− subjects had no substantial IFNγ responses (>50 SFU) to HIV and FIV peptide pools.
ELISpot assays. Human enzyme-linked immunosorbent spot assays (ELISpot) (R&D Systems, Cat #XEL285) which measure IFNγ production were performed (Abbott et al. 2011). The positive threshold for human IFNγ responses was >50 spot forming units (SFU)/10^6 cells. The final value for each subject was derived after subtracting the result of each HIV^+ subject with the media control followed by subtraction with the average response of the HIV^− subjects which was rarely more than 10 SFU.

[2] = test system: CD4+ or CD8+ T cells from HIV+ subjects; experiment: Intracellular cytotoxin staining (ICS), CD4+ or CD8+ T cells from HIV+ responders; conditions: for cytotoxin and CD107a expression in CD4+ and CD8+ T cells (in words): p24 peptides
Procedure: Briefly, 1×10^6PBMCs (freshly isolated) are stimulated with 20 μg of peptides for 6 hours in a total volume of 200 μL in a 96-well plate in presence of Golgi transport inhibitor (37° C., 5% CO2). […] Cells were stained with the LIVE/DEAD® fixable yellow dye (Invitrogen, Eugene, Oreg.). […] The flow cytometry data is collected using BD LSRII and analyzed with the FACS DIVA software.
The cells were subsequently fixed and permeabilized with Cytofix/Cytoperm solution (BD Biosciences) before reaction with anti-cytotoxin antibodies. The antibodies consisted of anti-CD3 APC-H7, anti-CD4 BD Horizon V450, and anti-CD8 FITC followed by anti-GrzB Alexa 700 and anti-GrzA PE (all from BD Biosciences), and anti-perforin PerCP (Abcam, Boston, Mass.).
as §3
Flow cytometry (FACS) for measuring CFSE-proliferation and intracellular cytokine staining (ICS).
Both analyses were performed with BD LSRII and […]™ Software (BD Biosciences), using a positive threshold of >1% CFSE^low for CFSE-proliferation except for ICS studies with threshold of >0.1% T cells expressing cytotoxin.

[3] = test system: CD3+CD4+ T cells from HIV+ subjects; experiment: CFSE-proliferation, CD3+CD4+ T cells from HIV+ subjects
Procedure: as §1, §2, §3, §4, §5

[4] = test system: CD8+ T cells from HIV+ subjects; experiment: Intracellular cytotoxin staining (ICS: perforin, GrzA, GrzB, CD107a), CD8+ T cells from HIV+ subjects; set-up: key to CD8^+ T-cell cytotoxins (8C): positive (+); negative (−) response; inhibitory (↓); not done (n)
Procedure: (§6) Briefly, 1×10^6PBMCs (freshly isolated) are stimulated with 20 μg of peptides for 6 hours in a total volume of 200 μL in a 96-well plate in presence of Golgi transport inhibitor (37° C., 5% CO2). The cells are processed as previously described (Horton et al. (2007)). Cells were stained with the LIVE/DEAD® fixable yellow dye (Invitrogen, Eugene, Oreg.). The monoclonal antibodies fluorochome-conjugated to human cytokines used are: APC-H7 to CD3 (clone SK7); BD Horizon V450 to CD4 (clone RPA-T4); Qdot to CD8 (clone 3B5); PE-cy7 to IFN-γ (clone 4S.B3); APC to IL-2 (clone MQ1-17H12) PerCP to perforin (clone B-D48); Alexa F1.700 to granzyme-B (clone GB11) and PE to granzyme-A (clone CB9). The flow cytometry data is collected using BD LSRII and analyzed with the FACS DIVA software.
(§7) The ICS analysis (Horton et al. (2007)) involved stimulating 0.5-1.0×10^6 freshly isolated PBMC for 6 h with the same peptide stimulant and culture conditions as the proliferation analysis in the presence of 1 μg/mL of Golgi transport inhibitor and monensin followed by labeling with LIVE/DEAD fixable yellow dye and then treatment with anti-CD16/CD32 antibody and T-cell phenotypic antibodies. The cells were subsequently fixed and permeabilized with Cytofix/Cytoperm solution (BD Biosciences) before reaction with anti-cytotoxin antibodies. The antibodies consisted of anti-CD3 APC-H7, anti-CD4 BD Horizon V450, and anti-CD8 FITC followed by anti-GrzB Alexa 700 and anti-GrzA PE (all from BD Biosciences), and anti-perforin PerCP (Abcam, Boston, Mass.).
as §3, §4, §5

[5] = test system: CD4+ T cells from HIV+ subjects; experiment: Intracellular cytotoxin staining (ICS), CD4+ T cells from HIV+ subjects; set-up: key to CD4^+ T-cell cytotoxins (4C): positive (+); negative (−) response; inhibitory (↓); not done (n); conditions: HIV^+ subjects compared to HIV^− control group
Procedure: as §6, §7, §3, §4, §5

[6] = average positive values, responders to Fp9 or Fp14 peptide pools
[7] = responders to Fp9 or Fp14 peptide pools
[8] = responders/tested, small 9-13mer peptides, yr 4, responders to Fp9 or Fp14 pool via both proliferation and IFNγ
[9] = small 9-13mer peptides, yr 4, responders to Fp9 or Fp14 pool via both proliferation and IFNγ

Substance: FIV F3-3m1 (KKKDSGKWRMLIDFR)
- CD8^+ T Proliferation (positive/total) [1]: 1/5
- IFNγ (positive/total) (PBMC from HIV+ subjects): 0/9

Substance: FIV F3-3m2 (KKKDSGKWRMLIDFRV)
- CD8^+ T Proliferation (positive/total) [1]: 2/5
- IFNγ (positive/total) (PBMC from HIV+ subjects): 7/9

Substance: FIV F3-3m3 (KKKSGKWRMLVDFRV)
- CD8^+ T Proliferation (positive/total) [1]: 0/5
- IFNγ (positive/total) (PBMC from HIV+ subjects): 0/9

Substance: FIV F3-3m4 (KKKSTKWRKLIDFRV)
- CD8^+ T Proliferation (positive/total) [1]: 0/5
- IFNγ (positive/total) (PBMC from HIV+ subjects): 0/9

Substance: FIV F3-3m5 (KKKSGKWRKLIDFRV)
- CD8^+ T Proliferation (positive/total) [1]: 0/5
- IFNγ (positive/total) (PBMC from HIV+ subjects): 0/9

Substance: FIV F3-3m6 (KKKSTKWRMLIDFRV)
- CD8^+ T Proliferation (positive/total) [1]: 2/5
- IFNγ (positive/total) (PBMC from HIV+ subjects): 7/9

Substance: KKKDSTKWRKLVDFR [H3-3]
- IFNγ response of H3 responders retested (PBMC from HIV+ subjects; three H3 responders tested on or after the second year): 0/3

Substance: KLYLKQSLSI [Fp14-3/4f]
- (magnitude) CD8 Proliferation [1, 6]: high (high when >30 CSFE)
- CD8+ T-cell proliferation response of HIV+ subjects (in words) ([1]; p24 pools and peptides): high
- Responder Frequency in %, CD8 Proliferation [1, 7]: 100%
- CD8^+ T-cell Responder Frequency [1, 8]: 10/10
- CD8^+ T-cell Responder Frequency (%) [1, 9]: (100) ^d %
- cytotoxin and CD107a expression in CD4+ and CD8+ T cells (in words) [2]: high frequency of cytotoxin expression; also recorded: high cytotoxin and CD107a expression
- Cytotoxins [2, 7]: High Cytotoxins (The cytotoxin result is considered high when four or five subjects express one or more cytotoxins in the CD8^+ T cells)
- (magnitude) IFNγ (PBMC from HIV+ subjects; [6]): low (low when the frequency of response is <15% CFSE or <125 SFU)
- IFNγ response of HIV+ subjects (in words) (PBMC from HIV+ subjects; p24 pools and peptides): low
- Responder Frequency in %, IFNγ (PBMC from HIV+ subjects; [7]): 40%
- CD4+ T-cell proliferation response of HIV+ subjects (in words) [3]: high
- (magnitude) CD4 Proliferation [3, 6]: low (The average positive values are considered low when the frequency of response is <15% CFSE)
- Responder Frequency in %, CD4 Proliferation [3, 7]: 60%
- CD4^+ T-cell Responder Frequency [3, 8]: 6/10
- CD4^+ T-cell Responder Frequency (%) [3, 9]: (60) ^d %

Substance: KLYLKQSLSIANA [Fp14-4]
- cytotoxin expression / CTL-associated activity in CD8+ T cells (in words) [4]: highest frequency and levels
- CD8^+ T-cell cytotoxins (8C) ([4]; HIV^+ subjects compared to HIV^− control group): +
- HIV+ subjects whose CD8+ T cells responded with one or more cytotoxins ([4]; five HIV+ subjects, individual 13-15mer peptides): five
- cytotoxin and CD107a expression in CD4+ and CD8+ T cells (in words) [2]: high frequency of cytotoxin expression
- CD4^+ T-cell cytotoxins (4C) [5]: +
